pEC50: −log10 of the molar value. Like-named read-outs stand apart in the source and are kept apart here.
Assays:
Type in all cases: cell-based
HIV-1 = test: Inhibition of HIV-1 giant cell formation in CEM cells; conditions: for pEC50: Table III, EC50 for inhibition of HIV1 in CEM cells, read-out: HIV1 CBM; for EC50: 96 h, CEM cells, giant cell formation after 4 days, Tables I and II, read-out: EC50/μM HIV-1 CEM
Procedure: (§1) Then 100 μL of the infected cell suspension was transferred to microtiter plate wells and mixed with 100 μL of the appropriate dilutions of the test compounds.
HIV 1 CEM: EC50 in μM for inhibition of HIV1 in CEM cells

CEM cells = test: Toxicity to mock-infected CEM cells (CC50); conditions: Table III; toxicity to CEM cells; read-out: CC50 CEN
Procedure: as §1
(§2) CC50 CEM: CC50 in μM for toxicity to CEM cells.
(§3) CC50 CEM: CC50 μM for toxicity to CEM cells

HIV-2 = test: Inhibition of HIV-2 giant cell formation in CEM cells; conditions: for pEC50: Table III, EC50 for inhibition of HIV-2 in CEM cells, read-out: HIV2 CBM; for EC50: 96 h, CEM cells, giant cell formation after 4 days, Tables I and II, read-out: EC50/μM HIV-2 CEM
Procedure: as §1
HIV1 CEM: EC50 in μM for inhibition of […] in CEM cells.
HIV2 CEM: EC50 in μM for inhibition of HIV-2 in CEM cells

MSV [1] = test: Minimum cytotoxic concentration in MSV assay; design: unit not given here; conditions: Table III
Description: MCC MSV: minimum cytotoxic concentration in MSV essay.

MSV [2] = test: Inhibition of MSV; conditions: Table III; inhibition of MSV; read-out: EC50 MSV
Procedure: EC50 MSV: EC50 μM for inhibition of MSV

[3] = Toxicity to mock-infected CEM cells (CC50); conditions: human; for CC50: Table III, toxicity to CEM cells, read-out: CC50 CEN; for CC50 at 4 days: mock-infected CEM cells, Tables I and II, read-out: CC50/μM CEM
Procedure: as §1, §2, §3

[4] = Human immunodeficiency virus 1, CCRF-CEM
[5] = Human immunodeficiency virus 2, CCRF-CEM

| Compound | pEC50 (HIV-1) | CC50 (CEM cells) [µM] | pEC50 (HIV-2) | MCCMSV (MSV [1]) | pEC50 (MSV [2]) | pEC50 (HIV-1; [4]) | CC50 [3] [µM] | pEC50 (HIV-2; [5]) | EC50 (HIV-1; [4]) [µM] | CC50 at 4 days [3] [µM] | EC50 (HIV-2; [5]) [µM] |
| --- | --- | --- | --- | --- | --- | --- | --- | --- | --- | --- | --- |
| COC(=O)[C@H](CCSC)NP(=O)(OC[C@@H]1C=C[C@H](n2cnc3c(NC4CC4)nc(N)nc32)C1)Oc1ccccc1 (stereo partly drawn) [Compound 1715, (1S,4R)-4-(2-amino-6-cyclopropylamino-9H-purin-9-yl)-2-cyclopentene-1-methanol O-(phenylmethoxy-L-methionyl phosphate)] | 5.94 | 48.9 | 5.56 | >20 | 4.99 | – | – | – | – | – | – |
| CC(C)COC(=O)[C@H](C)NP(=O)(OC[C@@H]1C=C[C@H](n2cnc3c(NC4CC4)nc(N)nc32)C1)Oc1ccccc1 (stereo partly drawn) [Compound 1672, (1S,4R)-4-(2-:amino-6-cyclopropylamino-9H-purin-9-yl-2-cyclopentene-1-methanol O-(phenyl (2-methylpropyl)oxyalaninyl phosphate)] | 7.05 | 14.4 | 7.00 | >4 | 5.70 | – | – | – | – | – | – |
| (1S,4R)-4-(2-amino6cyclopropyl-2 -amino-9H-purin-9-yl)-2-cyclopentene-1-methanol O-((P-(2 2-dimethoxy-L-propionic acid methyl ester)-phenyl)methoxyalaninyl phosphate) [Compound 1671] | 7.00 | 12.1 | 6.92 | >20 | 5.04 | – | – | – | – | – | – |
| C[C@H](NP(=O)(OC[C@@H]1C=CC(n2cnc3c(NC4CC4)nc(N)nc32)C1)Oc1ccccc1)C(=O)OCC1CCCC1 (stereo partly drawn) [Compound 1722] | – | – | – | – | – | 6.89 | 15.2 | 6.32 | – | – | – |
| C[C@H](NP(=O)(OC[C@@H]1C=C[C@H](n2cnc3c(NC4CC4)nc(N)nc32)C1)Oc1ccccc1)C(=O)OC1CCCCC1 (stereo partly drawn) [Compound 1707, (1S,4R)-4-(2-amino-6-cyclopropylamino-9H-purin-9-yl)-2-cyclopeniene-1-methanol O-Phenyl-(c-hexyloxy-L-alaninyl)-phosphate] | 6.48 | 10.2 | 6.60 | >4 | 5.55 | – | – | – | – | – | – |
| CCCCOC(=O)[C@H](C)NP(=O)(OC[C@@H]1C=C[C@H](n2cnc3c(NC4CC4)nc(N)nc32)C1)Oc1ccccc1 (stereo partly drawn) [Compound 1647, (1S,4R)-4-(2-amino-6-cyclopropylamino-9H-purin-9-yl)-2-cyclopentene-1-methanol O-Phenyl-(n-butoxy-L-alaninyl)-phosphate] | 7.07 | 8.23 | 6.77 | >4 | 6.21 | – | – | – | – | – | – |
| CC(C)CCCOC(=O)[C@H](C)NP(=O)(OC[C@@H]1C=CC(n2cnc3c(NC4CC4)nc(N)nc32)C1)Oc1ccccc1 (stereo partly drawn) [Compound 1721, (1S,4R)-4-(2-amino-6-cyclopropylamino-9H-purin-9-y))-2-cyclopentene-1-methanol O-[phenyl (4-methyl-1-pentyloxy-L-alaninyl)phosphate] | – | – | – | >4 | 5.66 | 7.30 | 12.5 | 6.85 | – | – | – |
| C[C@H](NP(=O)(OC[C@@H]1C=C[C@H](n2cnc3c(NC4CC4)nc(N)nc32)C1)Oc1ccccc1)C(=O)OCC1CCCCC1 (stereo partly drawn) [Compound 1708, (1S,4R)-4-(2-amino-6-cyclopropylamino-9H-purin-9-yl)-2cyclopentene-1-methanol O-Phenyl-(cyclobexane-methoxy-L-alaninyl)-phosphate] | 6.82 | 15.1 | 6.80 | >4 | 5.89 | – | – | – | – | – | – |
| CCCCCOC(=O)[C@H](C)NP(=O)(OC[C@@H]1C=C[C@H](n2cnc3c(NC4CC4)nc(N)nc32)C1)Oc1ccccc1 (stereo partly drawn) [Compound 1706, (1S,4R)-4-(2-amino-6-cyclopropylamino-9H-purin-9-yl)-2-cyclopentene-1-methanol 0-Phenyl-(n-pentyloxy-L-alaninyl)-phosphate] | 7.19 | 16.4 | 7.10 | >4 | 5.84 | – | – | – | – | – | – |
| CC(C)CCOC(=O)C(C)NP(=O)(OC[C@@H]1C=C[C@H](n2cnc3c(NC4CC4)nc(N)nc32)C1)Oc1ccccc1 (stereo partly drawn) [Compound 1674, (1S,4R)-4-(2-amino-6-cyclopropylamino-9H-purin-9-yl)-2-cyclopentene-1-methanol O-(phenyl (3-methylbutyl)oxyalaninyl phosphate)] | – | 10.7 | 6.60 | >4 | 5.69 | – | – | – | – | – | – |
| Nc1nc(NC2CC2)c2ncn([C@H]3C=C[C@@H](CO)C3)c2n1 [Abacavir, (1S,4R)-4-[2-anino-6-(cyclopropylamino)-9H-purin-9-yl]-2-cyclopentene-1-methanol, reference compound] | – | – | – | – | – | – | – | – | 1.9 | 78 | 3 |
| COC(=O)C(CC(C)C)NP(=O)(OC[C@@H]1C=CC(n2cnc3c(NC4CC4)nc(N)nc32)C1)Oc1ccccc1 (stereo partly drawn) [Compound 1718] | – | – | – | >20 | 5.05 | 6.07 | 22 | 5.83 | – | – | – |
| CCOC(=O)C[C@H](NP(=O)(OC[C@@H]1C=C[C@H](n2cnc3c(NC4CC4)nc(N)nc32)C1)Oc1ccccc1)C(=O)OCC (stereo partly drawn) [Compound 1714, (1S,4R)-4-(2-amino-6-cyclopropylamino-9H-purin-9-yl)-2-cyclopeutene-1-methanol O-(phenyldiethoxy-L-aspartyl phosphate)] | 6.26 | 23.1 | 5.68 | >20 | 5.14 | – | – | – | – | – | – |
| CCCOC(=O)[C@H](C)NP(=O)(OC[C@@H]1C=C[C@H](n2cnc3c(NC4CC4)nc(N)nc32)C1)Oc1ccccc1 (stereo partly drawn) [Compound 1646, (1S,4R)-4-(2-amino-6-cyclopropylamino-9H-purin-9-Sl)-2-cyclopentene-1-methanol O-Phenyl-(n-propoxy-L-alaninyl)-phosphate] | 7.03 | 9 | 6.92 | >4 | 5.70 | – | – | – | – | – | – |
| C[C@H](NP(=O)(OC[C@@H]1C=C[C@H](n2cnc3c(NC4CC4)nc(N)nc32)C1)Oc1ccccc1)C(=O)OC(C)(C)C (stereo partly drawn) [Compound 1645, (1S,4R)-4-(2-amino-6-cyclopropylamino-9H-purin-9-yl)-2-cyclopentene-1-methanol O-(phenyl-tertbutyloxy-L-alaninyl)-phosphate] | 5.43 | 33 | 5.22 | >20 | 4.93 | – | – | – | – | – | – |
| Nc1nc2c(ncn2[C@H]2C=C[C@@H](CO)C2)c(=O)[nH]1 [(1R, 4S)-9-{4-(hydroxymethyl)-2-cyclopenten-1-yl]guanine, reference compound] | – | – | – | – | – | – | – | – | 2 | 157 | 2.3 |
| COC(=O)[C@H](CC1CCCCC1)NP(=O)(OC[C@@H]1C=C[C@H](n2cnc3c(NC4CC4)nc(N)nc32)C1)Oc1ccccc1 (stereo partly drawn) [Compound 1709, (1 S,4R)-4-(2-amino-6-cyclopropylamino-9H-purin-9-yl)-2-cyclopentene-1-methanol O-Phenyl-(methoxy-3-cyclohexane-L-alaninyl)-phosphate] | 5.92 | 16 | 5.70 | >4 | 5.76 | – | – | – | – | – | – |
| COC(=O)[C@H](C)NP(=O)(OC[C@@H]1C=C[C@H](n2cnc3c(NC4CC4)nc(N)nc32)C1)Oc1ccc(Br)cc1 (stereo partly drawn) [Compound 1710, (1S,4R)-4-(2-amino-6-cyclopropylamino-9H-purin-9-yl)-2-cyclopentene-1-methanol O-[4-bromophenyl-(methoxy-L-alaninyl)]-phosphate] | 8.26 | 5.78 | 7.31 | >0.8 | 6.29 | – | – | – | – | – | – |
| C[C@H](NP(=O)(OC[C@@H]1C=C[C@H](n2cnc3c(NC4CC4)nc(N)nc32)C1)Oc1ccccc1)C(=O)OCC(C)(C)C (stereo partly drawn) [Compound 1673, (1S ,4R)-442-amino6-cyclopropylamino-9H-purin-9-y)-2-cyclopentene-1-methanol O-(phenyl (2,2-dimethylpropyl)oxyalaninyl phosphate)] | 6.82 | 8.07 | 6.74 | >4 | 5.53 | – | – | – | – | – | – |
| COC(=O)CNP(=O)(OC[C@@H]1C=C[C@H](n2cnc3c(NC4CC4)nc(N)nc32)C1)Oc1ccccc1 (stereo partly drawn) [Compound 1588, (1 S,4R)-4-(2-amino-6-cyclopropylamino-9H-purin-9-yl)-2-cyclopentene-1-methanol O-[phenyl-(methoxy-glycinyl)]-phosphate] | 5.75 | ≥ 100 | 5.70 | – | – | – | – | – | – | – | – |
| CC(C)OC(=O)[C@H](C)NP(=O)(OC[C@@H]1C=C[C@H](n2cnc3c(NC4CC4)nc(N)nc32)C1)Oc1ccccc1 (stereo partly drawn) [Compound 1661, (1S,4R)-4-(2-amino-6-cyclopropylamino-9H-purin-9-yl)-2-cyclopentene-1-methanol O-Phenyl-(i-propoxy-L-alaninyl)-phosphate] | 6.30 | 9.18 | 6.07 | ≧20 | 5.56 | – | – | – | – | – | – |
